# Reference: paper PMC4191400 (Nucleic Acids Research, 2014)
# Several values for one entry are separate records, joined by “and”; a condition that tells them apart may be missing. Equal entries are not always repeated. Where two headings read alike, the source gives them in different places.
# What was measured:
# [1] = test system: K103N HIV-1; test: HIV-1 drug susceptibility assay, K103N virus; format: cell-based
# Protocol: (§1) The genes for K103N, E138D/K101R and K101R/K103N/E138D RT were cloned into HIV-1LAI ([11]). NNRTI susceptibility was determined in TZM-bl cells as described previously ([21]).
# [2] = test system: WT HIV-1; test: HIV-1 drug susceptibility assay (inhibition of HIV-1 replication), WT virus; format: cell-based; details: Human immunodeficiency virus 1, head: P4/R5 cells, footnote: TZM-bl cells, mean ± SD, at least three experiments
# Protocol: as §1
# [3] = test system: K101R/E138D/K103N HIV-1; test: HIV-1 drug susceptibility assay, K101R/E138D/K103N virus; format: cell-based; details: for EC50: Human immunodeficiency virus 1, head: P4/R5 cells, footnote: TZM-bl cells, mean ± SD, read-out: EC50, inhibition of HIV-1 replication
# Protocol: as §1
# [4] = test system: K101R/E138D HIV-1; test: HIV-1 drug susceptibility assay, K101R/E138D virus; format: cell-based; details: for EC50: Human immunodeficiency virus 1, head: P4/R5 cells, footnote: TZM-bl cells, mean ± SD, read-out: EC50, inhibition of HIV-1 replication
# Protocol: as §1
# [5] = molecular target: T1, K103N RT–T/P complex (Human immunodeficiency virus type 1 group M subtype B, UniProt P04585, K690N); format: binding, HIV-1; details: K103N vs WT RT–T/P complex
# T1 construct: asymmetric heterodimer composed of a 66-kDa (p66) subunit and a p66-derived 51-kDa (p51) subunit; made in house
# Protocol: (§2) Fluorescence anisotropy experiments were performed as previously described ([17],[18]). Assays were carried out using a fluorescein-labeled T/P substrate. The concentration of T/P in all experiments was 5 nM (in a 400-μl cuvette). Data were analyzed as described in the Supplementary Materials and Methods section.
# (§3) -ddC-3’) was annealed to a 5’-biotinylated 35 nucleotide DNA […]
# (§4) template (5’-biotin-[…]-3’). We also […]
# (§5) performed PIFE experiments using a 21 nucleotide DNA primer (5’-Cy3- […]
# (§6) -ddC-3’) annealed to the same template. For the single-pair FRET experiments, the same T/P was used, but it lacked 5’-Cy3. For the anisotropy […]
# (§7) Fluorescence anisotropy experiments were performed as previously described (5, 6), using a Varian Cary Eclipse fluorescence spectrophotometer. […]
# (§8) 5 and 10 nm respectively. […] Anisotropy (r) was calculated as: r= (IVV-G·IVH)/(IVV+2·G·IVH) (1) where IVV is the fluorescence intensity with vertically oriented excitation and emission polarizers and IVH is the fluorescence intensity with a vertically oriented excitation polarizer and a horizontally oriented emission polarizer. The G-factor, defined as G=IHV/IHH, was measured […]
# (§9) For all theoretical calculations, r was calculated using the Perrin equation: r=ro/(1+τ/ θ)                 (2) where ro is the fundamental anisotropy, τ  the lifetime and θ  the rotational correlation time (7). […]
# (§10) analyzed. […]
# [6] = molecular target: WT RT–T/P complex (Human immunodeficiency virus type 1 group M subtype B, UniProt P04585, C625V/C867S/D837C/T726C); parameters: species or system HIV-1; details: for Eapp (apparent FRET energy transfer, fingers-thumb): mean ± SD
# Protocol: Single-molecule total internal reflection fluorescence (TIRF) microscopy was performed as described previously ([19]). For the PIFE assays, Cy3-labeled T/P molecules were surface-tethered to a polyethylene glycol (PEG) treated flow cell via a biotin:streptavidin:biotin-PEG linkage. The concentrations of T/P were typically 20 pM, which provided an optimal surface density of ∼100 molecules per field of view. […] For the FRET assays, unlabeled T/P was surface-tethered by introducing 2 μM T/P into the flow cell to allow formation of a surface-dense layer of T/P substrates. Labeled RT (40 pM) was then introduced into the flow cell and allowed to bind to the T/P. Unbound RT was removed by washing. The PIFE and FRET data were analyzed as described in Supplementary Materials and Methods.
# All experiments were performed in 50 mM Tris-HCl, pH 7.5, 25 mM NaCl, and 5 mM MgCl2.
# The buffer used in TIRF microscopy experiments also contained 0.1 mg/ml glucose oxidase, 0.02 mg/ml catalase, 0.4% wt/v β-d-glucose, and 2 mM Trolox. Unless otherwise indicated, the TTP, EFV and NVP concentrations were held at 50 μM, 500 nM and 1 μM, respectively, […]
# Unlabeled T/P was surface tethered by introducing 2 µM T/P into the flow cell to allow formation of a surface-dense layer of T/P substrates, which promoted observation of RT-T/P complexes. 40 pM of labeled RT was then introduced into the flow cell and allowed to bind to the T/P. Unbound RT was removed by extensive washing. Low concentrations of RT followed by a wash step eliminated excess background noise and/or saturation of the EMCCD. Based on the relative distribution of donor and acceptor intensities observed in the TIRFM fields of view, […]
# analyzed. Eapp was calculated using the equation: […]
# where ID and IA denote background-corrected donor and acceptor intensities, respectively.
# RT. Eapp histograms were subsequently constructed by collecting the pre-photobleach regions of all traces visibly resulting in donor and acceptor photobleaching, binned into 25 bins, and then fit with single Gaussian functions (see Supplementary Figure 3). Thumb/fingers distances reported in Supplementary Table 1 were derived from the fitted Eapp values using the Förster equation: […]
# where r is the distance between the dipoles of Cy3 and Cy5, and Ro is the empirically calculated
# [7] = molecular target: T2, WT HIV-1 RT (Human immunodeficiency virus type 1 group M subtype B, UniProt P04585); test: biochemical; details: mean ± SD, at least four experiments, read-out: IC50, inhibition of RT RNA-dependent DNA polymerase activity
# T2 construct: asymmetric heterodimer composed of a 66-kDa (p66) subunit and a p66-derived 51-kDa (p51) subunit; made in house
# Protocol: (§11) The RNA- and DNA-dependent DNA polymerase activities of the purified and labeled RTs were assessed as described previously ([14]).
# [8] = molecular target: T3, K101R/E138D HIV-1 RT (Human immunodeficiency virus type 1 group M subtype B, UniProt P04585, E725D/K688R); test: Inhibition of RT RNA-dependent DNA polymerase activity, K101R/E138D RT; format: biochemical
# T3 construct: asymmetric heterodimer composed of a 66-kDa (p66) subunit and a p66-derived 51-kDa (p51) subunit; made in house
# Protocol: as §11
# [9] = molecular target: T4, WT RT–T/P complex (Human immunodeficiency virus type 1 group M subtype B, UniProt P04585); test: biochemical; parameters: species or system HIV-1; details: fluorescence anisotropy, 5 nM T/P, read-out: Kd, NNRTI binding to the RT–T/P complex
# T4 construct: asymmetric heterodimer composed of a 66-kDa (p66) subunit and a p66-derived 51-kDa (p51) subunit; made in house
# Protocol: as §2, §3, §4, §5, §6, §7, §8, §9, §10
# [10] = molecular target: T5, E138D HIV-1 RT (Human immunodeficiency virus type 1 group M subtype B, UniProt P04585, E725D); test: Inhibition of RT RNA-dependent DNA polymerase activity, E138D RT; format: biochemical
# T5 construct: asymmetric heterodimer composed of a 66-kDa (p66) subunit and a p66-derived 51-kDa (p51) subunit; made in house
# Protocol: as §11
# [11] = molecular target: T6, K101R HIV-1 RT (Human immunodeficiency virus type 1 group M subtype B, UniProt P04585, K688R); test: Inhibition of RT RNA-dependent DNA polymerase activity, K101R RT; format: biochemical
# T6 construct: asymmetric heterodimer composed of a 66-kDa (p66) subunit and a p66-derived 51-kDa (p51) subunit; made in house
# Protocol: as §11
# [12] = molecular target: T1, K103N RT–T/P complex; test: dTTP binding to RT-T/P complex by fluorescence anisotropy, K103N; parameters: species or system HIV-1; details: presence vs absence of EFV
# Protocol: as §2, §3, §4, §5
# -ddC-3’) annealed to the same template. For the single-pair FRET experiments, the same T/P was used, but it lacked 5’-Cy3. For the anisotropy experiments we used a 19 nt DNA primer (5’-Fluorescein-dT-[…]- […]
# Fluorescence anisotropy experiments were performed as previously described (5, 6), using a Varian Cary Eclipse fluorescence spectrophotometer. […] Anisotropy (r) was calculated as: r= (IVV-G·IVH)/(IVV+2·G·IVH) (1) where IVV is the fluorescence intensity with vertically oriented excitation and emission polarizers and IVH is the fluorescence intensity with a vertically oriented excitation polarizer and a horizontally oriented emission polarizer. The G-factor, defined as G=IHV/IHH, was measured before each experiment to ensure a value of ~ 1.65. […]
# For fluorescein, empirically determined values of ro = […] and τ = 4.1 ns were used (8, 9). θ was calculated using the equation: […]
# as §10
# [13] = Human immunodeficiency virus 1, K103N virus, head: P4/R5 cells, footnote: TZM-bl cells, mean ± SD, read-out: EC50, inhibition of HIV-1 replication
compound,measurement,setting,value
"O=C1Nc2ccc(Cl)cc2[C@@](C#CC2CC2)(C(F)(F)F)O1 [Efavirenz, efavirenz]",EC50,"[1]; Human immunodeficiency virus 1, read-out: EC50, inhibition of HIV-1 replication",64 ± 18.7 nM
same,EC50,[2],1.3 ± 0.2 nM
same,EC50,[3],15.9 ± 2.4 nM
same,Increase of susceptibility (as measured by IC50 and EC50) by the E138D/K101R mutation,[4]; E138D/K101R vs WT,up to 7 fold
same,EC50,[4]; K101R/E138D virus,0.2 nM
"Cc1ccnc2c1NC(=O)c1cccnc1N2C1CC1 [Nevirapine, nevirapine]",Decrease of binding affinity by the K103N substitution,[5],~10 fold
same,"Eapp (apparent FRET energy transfer, fingers-thumb)","[6]; WT RT-T/P plus NNRTI (EFV 500 nM, NVP 1 μM), centre of Gaussian fit, listed as NVP",0.68 ± 0.18 and 0.68
same,"Eapp (apparent FRET energy transfer, fingers-thumb)",[6]; WT RT-T/P-dNTP plus NNRTI,0.72 ± 0.14
same,Average opening of the fingers and thumb,"[6]; WT RT–T/P complex, NNRTI vs no inhibitor",2.0 Å
same,Effect on fingers/thumb FRET of the ternary complex,"[6]; WT RT–T/P–dNTP complex, NNRTI infused",did not affect the FRET histogram
same,EC50,[1]; [13],> 200 nM
same,EC50,[2],24.6 ± 5.9 nM
same,EC50,[3],> 200 nM
same,EC50,[4]; K101R/E138D virus,21.6 ± 16.8 nM
"Cc1cc(/C=C/C#N)cc(C)c1Nc1ccnc(Nc2ccc(C#N)cc2)n1 [Rilpivirine, rilpivirine]",IC50,[7],22.5 ± 2.2 nM
same,Fold-R (IC50 mutant/IC50 WT),[8],0.5
same,IC50,[8]; mean ± SD,11.2 ± 0.8 nM
same,Effect of the K103N substitution on NNRTI binding affinity,[5],did not decrease the binding affinity
same,EC50,[1]; [13],0.4 ± 0.1 nM
same,Fold-R (EC50 mutant/EC50 WT),[1]; K103N virus,1.1
same,Kd,[9],82.5 nM
same,EC50,[2],0.37 ± 0.06 nM
same,Fold-R (EC50 mutant/EC50 WT),[3],0.3
same,EC50,[3],0.12 ± 0.03 nM
same,Fold-R (IC50 mutant/IC50 WT),[10],0.4
same,IC50,[10]; mean ± SD,8.3 ± 1.2 nM
same,Fold-R (IC50 mutant/IC50 WT),[11],0.7
same,IC50,[11]; mean ± SD,15.5 ± 7.6 nM
same,EC50,[4]; K101R/E138D virus,0.06 ± 0.01 nM
same,Fold-R (EC50 mutant/EC50 WT),[4]; K101R/E138D virus,0.2
Cc1cn([C@H]2C[C@H](O)[C@@H](COP(=O)(O)OP(=O)(O)OP(=O)(O)O)O2)c(=O)[nH]c1=O [dTTP],Increase of Kd for dTTP binding in the presence of inhibitor,[12],3 fold
